Data taken from patent US20090304692A1, “TRIAZINE COMPOUNDS AS PI3 KINASE AND MTOR INHIBITORS” (Wyeth, priority 2008, published 2009).
Where “and” joins values, the source holds several entries; their conditions need not be identical. Equal entries are not always repeated. Where two headings read alike, the source gives them in different places. Blank lines part the entries; values can stand above or below the compound they belong to.

Assays:
[1] = target: Human mTOR (FLAG-TOR) (Homo sapiens, UniProt P42345); assay: mTOR kinase assay (DELFIA format, purified enzyme); type: biochemical
[2] = test system: human breast MDA-MB-361 tumor cell line; assay: In vitro cell culture growth assay (MTS), MDA-MB-361; type: cell-based
[3] = test system: human prostate PC3-mm2 tumor cell line; assay: In vitro cell culture growth assay (MTS), PC3-mm2; type: cell-based
[4] = target: PI3K-α (Homo sapiens, UniProt P42336); assay: PI3K-alpha fluorescence polarization assay; conditions: read-out: IC50 PI3Kα
[5] = target: PI3K-γ (Homo sapiens, UniProt P48736); assay: PI3K-gamma fluorescence polarization assay; conditions: read-out: IC50 PI3Kγ
[6] = Homo sapiens, MDA-MB-361, 72 h, read-out: IC50 MDA-MB-361, MTS cell growth assay, three days after drug treatment
[7] = Homo sapiens, PC3MM2, 72 h, read-out: IC50 PC3-mm2, MTS cell growth assay, three days after drug treatment
[8] = Homo sapiens, MDA-MB-361, 72 h, MTS cell growth assay, three days after drug treatment, read-out: IC50 MDA-MB-361
[9] = Homo sapiens, PC3MM2, 72 h, MTS cell growth assay, three days after drug treatment, read-out: IC50 PC3-mm2
[10] = Homo sapiens, MDA-MB-361, 72 h, MTS cell growth assay, three days after drug treatment, MDA-MB-361 cells, read-out: IC50 MDA-MB-361
[11] = Homo sapiens, PC3MM2, 72 h, MTS cell growth assay, three days after drug treatment, PC3-mm2 cells, read-out: IC50 PC3-mm2
[12] = Homo sapiens, MDA-MB-361, 72 h, read-out: IC50 MDA-MB-361
[13] = Homo sapiens, PC3MM2, 72 h, read-out: IC50 PC3-mm2
[14] = Homo sapiens, 72 h, MTS cell growth assay, three days after drug treatment, MDA-MB-361 cells, read-out: IC50 MDA-MB-361

Sequence of PI3K-γ (P48736 whole entry, species assumed): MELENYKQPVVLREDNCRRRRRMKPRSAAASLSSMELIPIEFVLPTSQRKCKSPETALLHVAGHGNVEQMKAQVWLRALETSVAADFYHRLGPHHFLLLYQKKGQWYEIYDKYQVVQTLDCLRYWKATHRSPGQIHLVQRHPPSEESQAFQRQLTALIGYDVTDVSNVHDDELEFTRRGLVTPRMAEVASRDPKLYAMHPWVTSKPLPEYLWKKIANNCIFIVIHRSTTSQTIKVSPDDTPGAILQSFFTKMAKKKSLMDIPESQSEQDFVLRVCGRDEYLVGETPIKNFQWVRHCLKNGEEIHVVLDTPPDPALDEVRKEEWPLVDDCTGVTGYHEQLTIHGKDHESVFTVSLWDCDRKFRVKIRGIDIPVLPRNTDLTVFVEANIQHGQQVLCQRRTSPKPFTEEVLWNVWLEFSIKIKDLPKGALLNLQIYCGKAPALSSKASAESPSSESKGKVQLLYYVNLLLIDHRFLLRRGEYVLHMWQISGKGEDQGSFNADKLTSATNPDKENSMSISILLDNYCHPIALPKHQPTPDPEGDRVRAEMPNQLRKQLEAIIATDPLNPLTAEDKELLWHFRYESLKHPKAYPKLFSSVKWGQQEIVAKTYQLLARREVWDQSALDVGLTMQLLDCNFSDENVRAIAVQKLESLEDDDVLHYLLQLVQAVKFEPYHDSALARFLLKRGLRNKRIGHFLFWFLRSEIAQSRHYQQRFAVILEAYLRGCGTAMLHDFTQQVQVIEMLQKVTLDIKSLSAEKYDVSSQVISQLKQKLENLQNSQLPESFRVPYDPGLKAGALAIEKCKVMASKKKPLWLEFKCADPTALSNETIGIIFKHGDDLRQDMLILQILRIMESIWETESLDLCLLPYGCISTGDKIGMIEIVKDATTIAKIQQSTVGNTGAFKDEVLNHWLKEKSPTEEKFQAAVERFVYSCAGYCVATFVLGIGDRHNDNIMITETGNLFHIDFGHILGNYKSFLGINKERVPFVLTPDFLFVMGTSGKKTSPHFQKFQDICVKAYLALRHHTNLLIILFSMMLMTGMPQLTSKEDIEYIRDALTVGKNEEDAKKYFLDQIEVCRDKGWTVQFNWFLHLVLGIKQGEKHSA
Sequence of PI3K-α (P42336 whole entry, species assumed): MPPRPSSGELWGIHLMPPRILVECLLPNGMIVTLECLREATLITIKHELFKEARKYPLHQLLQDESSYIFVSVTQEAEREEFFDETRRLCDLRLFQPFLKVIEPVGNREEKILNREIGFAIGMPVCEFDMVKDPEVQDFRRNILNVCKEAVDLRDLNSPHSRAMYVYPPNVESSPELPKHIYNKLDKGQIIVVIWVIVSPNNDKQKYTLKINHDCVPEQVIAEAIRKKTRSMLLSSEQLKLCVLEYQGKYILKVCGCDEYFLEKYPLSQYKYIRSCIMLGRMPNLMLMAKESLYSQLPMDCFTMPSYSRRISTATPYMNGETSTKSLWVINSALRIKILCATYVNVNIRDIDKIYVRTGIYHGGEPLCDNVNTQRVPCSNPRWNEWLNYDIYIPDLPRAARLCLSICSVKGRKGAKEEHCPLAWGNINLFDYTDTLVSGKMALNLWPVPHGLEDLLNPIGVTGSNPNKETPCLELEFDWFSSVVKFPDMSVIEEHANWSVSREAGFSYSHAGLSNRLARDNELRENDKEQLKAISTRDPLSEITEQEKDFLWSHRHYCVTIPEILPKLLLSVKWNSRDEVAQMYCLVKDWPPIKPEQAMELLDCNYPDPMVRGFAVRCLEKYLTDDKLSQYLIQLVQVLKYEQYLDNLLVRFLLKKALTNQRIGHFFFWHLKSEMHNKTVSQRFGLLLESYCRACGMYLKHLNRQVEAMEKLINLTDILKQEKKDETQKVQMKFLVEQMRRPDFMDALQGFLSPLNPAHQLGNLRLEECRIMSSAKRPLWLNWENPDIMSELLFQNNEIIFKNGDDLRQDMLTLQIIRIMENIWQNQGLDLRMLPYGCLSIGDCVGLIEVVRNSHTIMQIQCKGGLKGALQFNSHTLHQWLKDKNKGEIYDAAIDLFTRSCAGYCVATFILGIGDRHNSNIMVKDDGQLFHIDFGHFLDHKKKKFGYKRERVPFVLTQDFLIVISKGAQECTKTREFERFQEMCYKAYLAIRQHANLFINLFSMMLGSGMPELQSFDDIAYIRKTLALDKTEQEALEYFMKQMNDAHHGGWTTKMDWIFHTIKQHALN
Sequence of PI3K-α (P27986 whole entry partner, species assumed): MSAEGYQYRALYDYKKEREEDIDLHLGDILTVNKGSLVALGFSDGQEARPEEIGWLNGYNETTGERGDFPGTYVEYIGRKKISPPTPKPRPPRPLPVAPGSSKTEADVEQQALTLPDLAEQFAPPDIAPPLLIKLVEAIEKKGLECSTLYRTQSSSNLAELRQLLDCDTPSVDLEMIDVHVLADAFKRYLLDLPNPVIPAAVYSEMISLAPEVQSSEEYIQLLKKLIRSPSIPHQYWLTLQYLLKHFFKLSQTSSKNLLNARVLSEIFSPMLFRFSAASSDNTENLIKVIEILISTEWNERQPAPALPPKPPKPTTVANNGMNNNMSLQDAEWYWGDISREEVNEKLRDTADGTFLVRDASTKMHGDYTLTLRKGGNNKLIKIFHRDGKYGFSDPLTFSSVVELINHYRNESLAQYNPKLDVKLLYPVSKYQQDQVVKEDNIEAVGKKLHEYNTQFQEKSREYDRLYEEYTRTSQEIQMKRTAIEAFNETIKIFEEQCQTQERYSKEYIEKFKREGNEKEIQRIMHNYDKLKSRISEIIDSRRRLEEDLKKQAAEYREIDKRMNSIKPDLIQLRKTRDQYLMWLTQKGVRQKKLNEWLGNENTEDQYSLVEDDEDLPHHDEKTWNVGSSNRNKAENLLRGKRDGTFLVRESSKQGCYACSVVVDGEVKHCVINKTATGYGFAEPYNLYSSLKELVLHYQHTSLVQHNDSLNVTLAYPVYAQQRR
Sequence of Human mTOR (FLAG-TOR) (P42345 1360-2549 limits assumed): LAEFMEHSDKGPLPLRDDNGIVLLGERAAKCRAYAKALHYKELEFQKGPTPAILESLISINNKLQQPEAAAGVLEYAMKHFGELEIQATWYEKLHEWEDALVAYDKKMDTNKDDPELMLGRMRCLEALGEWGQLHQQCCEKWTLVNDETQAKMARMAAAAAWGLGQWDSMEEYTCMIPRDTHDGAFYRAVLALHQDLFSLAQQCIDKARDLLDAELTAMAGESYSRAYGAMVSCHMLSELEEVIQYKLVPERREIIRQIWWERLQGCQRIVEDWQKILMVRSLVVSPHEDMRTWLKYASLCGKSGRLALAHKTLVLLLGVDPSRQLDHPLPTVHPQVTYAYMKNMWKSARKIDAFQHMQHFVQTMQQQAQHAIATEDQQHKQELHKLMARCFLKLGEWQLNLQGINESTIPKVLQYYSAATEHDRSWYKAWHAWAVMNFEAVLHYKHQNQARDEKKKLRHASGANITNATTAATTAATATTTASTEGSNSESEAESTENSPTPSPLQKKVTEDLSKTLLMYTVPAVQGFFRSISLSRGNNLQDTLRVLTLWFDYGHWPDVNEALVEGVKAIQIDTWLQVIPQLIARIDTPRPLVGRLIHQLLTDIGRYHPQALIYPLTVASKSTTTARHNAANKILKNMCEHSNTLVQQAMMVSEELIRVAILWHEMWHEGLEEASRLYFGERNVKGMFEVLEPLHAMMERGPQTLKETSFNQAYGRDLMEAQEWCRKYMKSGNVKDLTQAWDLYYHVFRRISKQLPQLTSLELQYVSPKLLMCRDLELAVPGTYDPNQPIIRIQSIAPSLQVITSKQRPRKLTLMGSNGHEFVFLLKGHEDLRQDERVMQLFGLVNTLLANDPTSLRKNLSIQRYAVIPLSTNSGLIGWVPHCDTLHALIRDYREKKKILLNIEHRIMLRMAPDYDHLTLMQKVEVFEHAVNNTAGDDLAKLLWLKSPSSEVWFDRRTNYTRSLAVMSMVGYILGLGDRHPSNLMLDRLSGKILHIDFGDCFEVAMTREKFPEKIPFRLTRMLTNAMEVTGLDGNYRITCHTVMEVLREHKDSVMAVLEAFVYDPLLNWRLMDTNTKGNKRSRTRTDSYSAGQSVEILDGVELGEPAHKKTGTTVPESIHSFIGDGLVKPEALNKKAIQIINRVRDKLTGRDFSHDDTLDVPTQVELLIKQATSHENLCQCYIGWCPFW

Compound: 1-{4-[4-(4-methylphenyl)-6-morpholin-4-yl-1,3,5-triazin-2-yl]phenyl}-3-[4-(pyrrolidin-1-ylcarbonyl)phenyl]urea [Example 553]
IC50 ([1]; read-out: IC50 mTOR): 19.5 nM | IC50 ([2]; MTS cell growth assay, three days after drug treatment, MDA-MB-361 cells, read-out: IC50 MDA-MB-361): 113 nM | IC50 ([3]; MTS cell growth assay, three days after drug treatment, PC3-mm2 cells, read-out: IC50 PC3-mm2): 522 nM | IC50 [4]: 12.5 nM | IC50 [5]: 72 nM

Compound: O=C(Nc1ccncc1)Nc1ccc(-c2nc(N3CCOCC3)nc(N3CCOCC3)n2)cc1 [Example 1, 1-[4-(4,6-dimorpholin-4-yl-1,3,5-triazin-2-yl)phenyl]-3-pyridin-4-ylurea]
IC50 ([1]; read-out: IC50 mTOR): 1.3 nM | IC50 [2, 6]: 45 nM | IC50 [3, 7]: 43 nM | IC50 [4]: 3 nM | IC50 [5]: 29 nM

Compound: O=C(Nc1ccc(-c2nc(N3CCOCC3)nc(N3CCOCC3)n2)cc1)Nc1cccnc1 [Example 2, 1-[4-(4,6-dimorpholin-4-yl-1,3,5-triazin-2-yl)phenyl]-3-pyridin-3-ylurea]
IC50 ([1]; read-out: IC50 mTOR): 1 nM | IC50 [2, 8]: 45 nM | IC50 [3, 9]: 43 nM

Compound: O=C(Nc1ccc(-c2nc(N3CCOCC3)nc(N3CCOCC3)n2)cc1)Nc1cccs1 [Example 4, 1-[4-(4,6-dimorpholin-4-yl-1,3,5-triazin-2-yl)phenyl]-3-thiophen-2-ylurea]
IC50 ([1]; read-out: IC50 mTOR): 1.7 nM | IC50 [2, 8]: 45 nM | IC50 [3, 9]: 43 nM

Compound: O=C(Nc1ccc(-c2nc(N3CCOCC3)nc(N3CCOCC3)n2)cc1)Nc1ccc(F)cc1F [Example 11, (2,4-difluorophenyl)-3-[4-(4,6-dimorpholin-4-yl-1,3,5-triazin-2-yl)phenyl]urea]
IC50 ([1]; read-out: IC50 mTOR): 9.25 nM | IC50 [2, 6]: 794 nM | IC50 [3, 7]: 5630 nM

Compound: CCN(CC)CCOC(=O)c1ccc(NC(=O)Nc2ccc(-c3nc(N4CCOCC4)nc(N4C5CCC4COC5)n3)cc2)cc1 [Example 40, 2-(diethylamino)ethyl 4-[({4-[4-morpholin-4-yl-6-(3-oxa-8-azabicyclo[3.2.1]oct-8-yl)-1,3,5-triazin-2-yl]phenyl}carbamoyl)amino]benzoate]
IC50 ([1]; read-out: IC50 mTOR): 0.66 nM | IC50 [2, 10]: < 30 nM | IC50 [2, 8]: < 30 nM | IC50 [3, 11]: 62 nM | IC50 [3, 9]: 62 nM

Compound: CC(C)Oc1nc(-c2ccc(NC(=O)Nc3ccc(C(=O)NC4CCN(C)CC4)cc3)cc2)nc(N2CCOCC2)n1 [Example 97, 4-({[4-(4-isopropoxy-6-morpholin-4-yl-1,3,5-triazin-2-yl)phenyl]carbamoyl}amino)-N-(1-methylpiperidin-4-yl)benzamide]
IC50 ([1]; read-out: IC50 mTOR): 1.1 nM and 1.2 nM | IC50 [2, 12]: < 30 nM | IC50 [3, 13]: 52 nM

Compound: CC(C)Oc1nc(-c2ccc(NC(=O)Nc3ccc(C(=O)NCCN(C)C)cc3)cc2)nc(N2CCOCC2)n1 [Example 187, N-[2-(dimethylamino)ethyl]-4-({[4-(4-isopropoxy-6-morpholin-4-yl-1,3,5-triazin-2-yl)phenyl]carbamoyl}amino)benzamide]
IC50 ([1]; IC50 mTOR): 3.5 nM | IC50 [2, 12]: 11 nM | IC50 [3, 13]: 41 nM | IC50 [4]: 3 nM

Compound: CCN(CC)C(=O)[n+]1ccc(NC(=O)Nc2ccc(-c3nc(N4CCOCC4)nc(N4C5CCC4COC5)n3)cc2)cc1 [Example 201, 1-(diethylcarbamoyl)-4-[({4-[4-morpholin-4-yl-6-(3-oxa-8-azabicyclo[3.2.1]oct-8-yl)-1,3,5-triazin-2-yl]phenyl}carbamoyl)amino]pyridinium]
IC50 ([1]; read-out: IC50 mTOR): 0.9 nM | IC50 [2, 8]: 29 nM | IC50 [3, 11]: 44 nM | IC50 [3, 9]: 44 nM

Compound: COc1nc(-c2ccc(NC(=O)Nc3ccc(C(=O)N(C)CCN(C)C)cc3)cc2)nc(N2CCOCC2)n1 [Example 243, N-[2-(dimethylamino)ethyl]-4-({[4-(4-methoxy-6-morpholin-4-yl-1,3,5-triazin-2-yl)phenyl]carbamoyl}amino)-N-methylbenzamide]
IC50 ([1]; IC50 mTOR): 7.7 nM | IC50 [2, 12]: 15 nM | IC50 [3, 13]: 34 nM | IC50 [4]: 1 nM | IC50 ([4]; listed as 720): 0.4 nM

Compound: COc1nc(-c2ccc(NC(=O)Nc3ccc(C(=O)NCCN(C)C)cc3)cc2)nc(N2CCOCC2)n1 [Example 244, N-[2-(dimethylamino)ethyl]-4-({[4-(4-methoxy-6-morpholin-4-yl-1,3,5-triazin-2-yl)phenyl]carbamoyl}amino)benzamide]
IC50 ([1]; IC50 mTOR): 5.1 nM and 5.65 nM | IC50 [2, 12]: < 31 nM | IC50 [3, 13]: 71 nM | IC50 [4]: 1 nM | IC50 ([4]; listed as 721): 0.6 nM

Compound: O=C(Nc1ccc(C(=O)NCCN2CCCCC2)cc1)Nc1ccc(-c2nc(O[C@H]3CCOC3)nc(N3CCOCC3)n2)cc1 [Example 520, 4-{[(4-{4-morpholin-4-yl-6-[(3S)-tetrahydrofuran-3-yloxy]-1,3,5-triazin-2-yl}phenyl)carbamoyl]amino}-N-(2-piperidin-1-ylethyl)benzamide]
IC50 ([1]; IC50 mTOR): 0.38 nM | IC50 [2, 12]: 5 nM | IC50 [3, 11]: 18 nM | IC50 [4]: 1.4 nM

Compound: O=C(Nc1ccc(C(=O)NCCN2CCOCC2)cc1)Nc1ccc(-c2nc(N3CCOCC3)nc(N3C4CCC3COC4)n2)cc1 [Example 702, N-(2-morpholin-4-ylethyl)-4-[({4-[4-morpholin-4-yl-6-(3-oxa-8-azabicyclo[3.2.1]oct-8-yl)-1,3,5-triazin-2-yl]phenyl}carbamoyl)amino]benzamide]
IC50 ([1]; read-out: IC50 mTOR): 0.555 nM | IC50 [2, 14]: 4 nM | IC50 [3, 11]: 14 nM | IC50 [5]: 126 nM

Compound: CC(C)N1CCN(C(=O)c2ccc(NC(=O)Nc3ccc(-c4nc(N5CCOCC5)nc(N5C6CCCC5COC6)n4)cc3)cc2)CC1 [Example 805, 1-(4-{[4-(1-methylethyl)piperazin-1-yl]carbonyl}phenyl)-3-{4-[4-morpholin-4-yl-6-(3-oxa-9-azabicyclo[3.3.1]non-9-yl)-1,3,5-triazin-2-yl]phenyl}urea]
IC50 ([1]; read-out: IC50 mTOR): 0.415 nM | IC50 ([2]; Homo sapiens, MDA-MB-361, 72 h, MDA-MB-361 cells, MTS, three days after drug treatment, read-out: IC50 MDA-MB-361): 3 nM | IC50 ([3]; Homo sapiens, PC3MM2, 72 h, PC3-mm2 cells, MTS, three days after drug treatment, read-out: IC50 PC3-mm2): 13 nM | IC50 [5]: 64 nM

Continued, values first:

IC50 ([1]; read-out: IC50 mTOR): 8 nM and 68 nM | IC50 ([2]; MTS cell growth assay, three days after drug treatment, listed as 10, read-out: IC50 MDA-MB-361): 2710 nM | IC50 ([3]; MTS cell growth assay, three days after drug treatment, listed as 10, read-out: IC50 PC3-mm2): 1780 nM | IC50 [4]: 20 nM | IC50 ([4]; listed as 10): 75 nM
Compound: O=C(Nc1ccc(Cl)cc1)Nc1ccc(-c2nc(N3CCOCC3)nc(N3CCOCC3)n2)cc1 [Example 8, 1-(4-chlorophenyl)-3-[4-(4,6-dimorpholin-4-yl-1,3,5-triazin-2-yl)phenyl]-urea]

IC50 ([1]; read-out: IC50 mTOR): 1 nM | IC50 [2, 8]: < 30 nM | IC50 [3, 9]: 49 nM
Compound: CC(O)c1ccc(NC(=O)Nc2ccc(-c3nc(N4CCOCC4)nc(N4CCOCC4)n3)cc2)cc1 (stereo not drawn) [Example 52, 1-[4-(4,6-dimorpholin-4-yl-1,3,5-triazin-2-yl)phenyl]-3-[4-(1-hydroxyethyl)phenyl]urea]

IC50 ([1]; read-out: IC50 mTOR): 24 nM | IC50 [2, 8]: 17 nM | IC50 [3, 9]: 49 nM
Compound: CN(C)CCN(C)C(=O)c1ccc(NC(=O)Nc2ccc(-c3nc(N4CCC4)nc(N4CCOCC4)n3)cc2)cc1 [Example 197, 4-({[4-(4-azetidin-1-yl-6-morpholin-4-yl-1,3,5-triazin-2-yl)phenyl]carbamoyl}amino)-N-[2-(dimethylamino)ethyl]-N-methylbenzamide]

IC50 ([1]; read-out: IC50 mTOR): 18 nM | IC50 [2, 10]: 26 nM | IC50 [3, 11]: 57 nM | IC50 [5]: 35 nM
Compound: CC(C)N1CCN(C(=O)c2ccc(NC(=O)Nc3ccc(-c4nc(N5CCC5)nc(N5CCOCC5)n4)cc3)cc2)CC1 [Example 492, 1-[4-(4-azetidin-1-yl-6-morpholin-4-yl-1,3,5-triazin-2-yl)phenyl]-3-(4-{[4-(1-methylethyl)piperazin-1-yl]carbonyl}phenyl)urea]

IC50 ([1]; read-out: IC50 mTOR): 4 nM | IC50 [2, 10]: 99 nM | IC50 [3, 11]: 206 nM | IC50 [5]: 64 nM
Compound: CN1CCN(C(=O)c2ccc(NC(=O)Nc3ccc(-c4nc(N5CCCOCC5)nc(N5CCOCC5)n4)cc3)cc2)CC1 [Example 573, 1-{4-[(4-methylpiperazin-1-yl)carbonyl]phenyl}-3-{4-[4-morpholin-4-yl-6-(1,4-oxazepan-4-yl)-1,3,5-triazin-2-yl]phenyl}urea]

IC50 [2, 14]: 5 nM | IC50 [3, 11]: 25 nM | IC50 [4]: 3 nM | IC50 [5]: 50.5 nM
Compound: C[C@H]1COCCN1c1nc(-c2ccc(NC(=O)Nc3ccc(C(=O)NCCN4CCCC4)cc3)cc2)nc(N2CCOCC2)n1 [Example 622, 4-{[(4-{4-[(3S)-3-methylmorpholin-4-yl]-6-morpholin-4-yl-1,3,5-triazin-2-yl}phenyl)carbamoyl]amino}-N-(2-pyrrolidin-1-ylethyl)benzamide]

IC50 [2, 14]: 5 nM | IC50 [3, 11]: 16 nM | IC50 [4]: 6 nM | IC50 [5]: 122 nM
Compound: C[C@@H]1COCCN1c1nc(-c2ccc(NC(=O)Nc3ccc(C(=O)NCCN(C)C)cc3)cc2)nc(N2CCOC[C@@H]2C)n1 [Example 634, N-[2-(dimethylamino)ethyl]-4-{[(4-{4-[(3R)-3-methylmorpholin-4-yl]-6-[(3S)-3-methylmorpholin-4-yl]-1,3,5-triazin-2-yl}phenyl)carbamoyl]amino}benzamide]
